Measurements taken from patent publication US20250108038A1 (priority 2023, published 2025).
Several values for one entry are separate records, joined by “and”; a condition that tells them apart may be missing. Identical values can stand only once.

Test system: Long Evans rats
Assay: Behavioral satiety sequence (BSS)
Assay type: in vivo, Long Evans rat
Excerpt: The Behavioural Satiety Sequence (BSS) is a technique used to evaluate physiological satiety. It is based on the expression of a sequence of behaviors including eating, grooming, locomotor activity, followed by resting, which are typically observed in rodents post-ingestion (Halford et al, 1998, Pharmacology Biochemistry and Behaviour. 61(2): 159-168). The BSS is a widely used model for determining the effects of novel pharmaceuticals on food intake and measures of satiety in rodents (Oliveira et al, 2011, Revista de Nutrição. 24(4) 619-628), and to discriminate the cause of reduced food intake following pharmacological manipulation. For example, treatments that may reduce food intake by non-specific mechanisms, such as immobility, malaise, and taste adulteration, will disrupt this sequence (Halford et al, 1998, Pharmacology Biochemistry and Behaviour. 61(2): 159-168).
Specifically, 12 male Long-Evans rats were food-deprived for 22 h with a 2 h feeding period each day. Rats were trained to consume daily food during the 2 h period over 25 days. The testing phase was initiated once the rats consistently consumed 16-18 g of food per day with ≤10% variance in amount of feed consumed. Feeding took place in designated individual boxes in a quiet room separate from the housing room. Continuous remote monitoring via video camera during feeding was used to assess the BSS. Food consumption was measured by weighing the total available food before and after the 2 h feeding window, correcting for spillage. Lorcaserin (1 mg/kg) was included as a reference control (Higgins et al, 2011, Neuropsychopharmacology. 37(5): 1177-1191). Subjects were tested using a repeated-measures, Latin square design with 2-3 days wash-out between treatment cycles.
On scheduled test days, animals were monitored remotely via video camera during the feeding access period. The occurrence of four mutually exclusive behaviors (eating/drinking, grooming, active, rest) were individually scored. Over the 2 h feeding period, behaviors were assessed every 30 seconds. Scores were compiled into 23 5 min timebins (timebin 24 was removed due to early removal of animals) and the frequency of each behavior within each timebin was calculated to determine a temporal frequency of each measure (Rodgers et al, 2010, Pharmacology Biochemistry and Behaviour. 97: 3-14). Percentage time was plotted for each behavioral sequence in each timebin to compare between treatment groups (Higgins et al, 2011, Neuropsychopharmacology. 37(5): 1177-1191).

[1] = Compound I-19 0.3 mg/kg, raw score per animal (LT-1 to LT-12)
[2] = Compound I-19 1 mg/kg i.p., AVG of the group
[3] = Compound I-19 1 mg/kg i.p., raw score per animal
[4] = Compound I-19 1 mg/kg, AVG of 12 animals

## Clc1ccc(C2(OCC3OCCO3)c3ccccc3C3=NCCN32)cc1 (stereo not drawn) [Compound I-19]
[1]
  BSS scoring G (grooming), Time Bin 22 (105-110 TOTAL): 0 (11×) and 1
  BSS scoring G (grooming), Time Bin 23 (110-115 TOTAL): 1 (4×) and 0 (7×) and 2
  BSS scoring G (grooming), Time Bin 24 (115-120 TOTAL): 0 (7×) and 1 (5×)
  BSS scoring R (resting), Time Bin 19 (90-95 TOTAL): 1 (5×) and 0 (5×) and 2 and 6
  BSS scoring R (resting), Time Bin 20 (95-100 TOTAL): 0 (6×) and 1 (3×) and 4 and 2 (2×)
  BSS scoring R (resting), Time Bin 21 (100-105 TOTAL): 0 (5×) and 1 (2×) and 3 (3×) and 2 and 10
  BSS scoring R (resting), Time Bin 22 (105-110 TOTAL): 0 (6×) and 4 and 10 and 6 and 1 and 2 (2×)
  BSS scoring R (resting), Time Bin 23 (110-115 TOTAL): 0 (7×) and 3 and 6 (2×) and 2 (2×)
  BSS scoring R (resting), Time Bin 24 (115-120 TOTAL): 0 (7×) and 10 and 6 and 7 and 1 (2×)
[2]
  BSS scoring A (active), Time Bin 1 (0-5 TOTAL), AVG: 0.11
  BSS scoring A (active), Time Bin 2 (5-10 TOTAL), AVG: 0.04
  BSS scoring A (active), Time Bin 3 (10-15 TOTAL), AVG: 0.07
  BSS scoring A (active), Time Bin 4 (15-20 TOTAL), AVG: 0.02
  BSS scoring A (active), Time Bin 5 (20-25 TOTAL), AVG: 0.10
  BSS scoring A (active), Time Bin 6 (25-30 TOTAL), AVG: 0.17
  BSS scoring E (eating/drinking), Time Bin 1 (0-5 TOTAL), AVG: 0.88
  BSS scoring E (eating/drinking), Time Bin 2 (5-10 TOTAL), AVG: 0.88
  BSS scoring E (eating/drinking), Time Bin 3 (10-15 TOTAL), AVG: 0.88
  BSS scoring E (eating/drinking), Time Bin 4 (15-20 TOTAL), AVG: 0.93
  BSS scoring E (eating/drinking), Time Bin 5 (20-25 TOTAL), AVG: 0.83
  BSS scoring E (eating/drinking), Time Bin 6 (25-30 TOTAL), AVG: 0.80
  BSS scoring G (grooming), Time Bin 1 (0-5 TOTAL), AVG: 0.02
  BSS scoring G (grooming), Time Bin 2 (5-10 TOTAL), AVG: 0.07
  BSS scoring G (grooming), Time Bin 3 (10-15 TOTAL), AVG: 0.03
  BSS scoring G (grooming), Time Bin 4 (15-20 TOTAL), AVG: 0.03
  BSS scoring G (grooming), Time Bin 5 (20-25 TOTAL), AVG: 0.03
  BSS scoring G (grooming), Time Bin 6 (25-30 TOTAL), AVG: 0.01
  BSS scoring R (resting), Time Bin 1 (0-5 TOTAL), AVG: 0.00
  BSS scoring R (resting), Time Bin 2 (5-10 TOTAL), AVG: 0.01
  BSS scoring R (resting), Time Bin 3 (10-15 TOTAL), AVG: 0.02
  BSS scoring R (resting), Time Bin 4 (15-20 TOTAL), AVG: 0.03
  BSS scoring R (resting), Time Bin 5 (20-25 TOTAL), AVG: 0.03
  BSS scoring R (resting), Time Bin 6 (25-30 TOTAL), AVG: 0.03
[3]
  BSS scoring A (active), Time Bin 1 (0-5 TOTAL): 0 (3×) and 1 (5×) and 2 (4×)
  BSS scoring A (active), Time Bin 2 (5-10 TOTAL): 0 (8×) and 2 and 1 (3×)
  BSS scoring A (active), Time Bin 3 (10-15 TOTAL): 0 (4×) and 1 (8×)
  BSS scoring A (active), Time Bin 4 (15-20 TOTAL): 0 (10×) and 1 (2×)
  BSS scoring A (active), Time Bin 5 (20-25 TOTAL): 2 (2×) and 0 (5×) and 1 (4×) and 4
  BSS scoring A (active), Time Bin 6 (25-30 TOTAL): 2 (3×) and 0 (5×) and 7 and 3 (2×) and 1
  BSS scoring E (eating/drinking), Time Bin 1 (0-5 TOTAL): 10 (3×) and 9 (4×) and 7 and 8 (4×)
  BSS scoring E (eating/drinking), Time Bin 2 (5-10 TOTAL): 10 (4×) and 8 (4×) and 9 (3×) and 7
  BSS scoring E (eating/drinking), Time Bin 3 (10-15 TOTAL): 10 (3×) and 9 (5×) and 8 (3×) and 7
  BSS scoring E (eating/drinking), Time Bin 4 (15-20 TOTAL): 10 (5×) and 9 (6×) and 8
  BSS scoring E (eating/drinking), Time Bin 5 (20-25 TOTAL): 7 (2×) and 10 (3×) and 9 (4×) and 8 (2×) and 4
  BSS scoring E (eating/drinking), Time Bin 6 (25-30 TOTAL): 6 and 10 (5×) and 1 and 7 (2×) and 9 and 8 (2×)
  BSS scoring G (grooming), Time Bin 1 (0-5 TOTAL): 0 (10×) and 1 (2×)
  BSS scoring G (grooming), Time Bin 2 (5-10 TOTAL): 0 (6×) and 2 (2×) and 1 (4×)
  BSS scoring G (grooming), Time Bin 3 (10-15 TOTAL): 0 (9×) and 1 (2×) and 2
  BSS scoring G (grooming), Time Bin 4 (15-20 TOTAL): 0 (9×) and 1 (3×)
  BSS scoring G (grooming), Time Bin 5 (20-25 TOTAL): 1 (4×) and 0 (8×)
  BSS scoring G (grooming), Time Bin 6 (25-30 TOTAL): 0 (11×) and 1
  BSS scoring R (resting), Time Bin 1 (0-5 TOTAL): 0
  BSS scoring R (resting), Time Bin 2 (5-10 TOTAL): 0 (11×) and 1
  BSS scoring R (resting), Time Bin 3 (10-15 TOTAL): 0 (10×) and 1 (2×)
  BSS scoring R (resting), Time Bin 4 (15-20 TOTAL): 0 (9×) and 1 (3×)
  BSS scoring R (resting), Time Bin 5 (20-25 TOTAL): 0 (9×) and 1 (2×) and 2
  BSS scoring R (resting), Time Bin 6 (25-30 TOTAL): 2 and 0 (10×) and 1
[4]
  BSS scoring A (active), Time Bin 13 (60-65 TOTAL), AVG: 0.09
  BSS scoring A (active), Time Bin 14 (65-70 TOTAL), AVG: 0.13
  BSS scoring A (active), Time Bin 15 (70-75 TOTAL), AVG: 0.17
  BSS scoring A (active), Time Bin 16 (75-80 TOTAL), AVG: 0.16
  BSS scoring A (active), Time Bin 17 (80-85 TOTAL), AVG: 0.18
  BSS scoring A (active), Time Bin 18 (85-90 TOTAL), AVG: 0.12
  BSS scoring E (eating/drinking), Time Bin 13 (60-65 TOTAL), AVG: 0.73
  BSS scoring E (eating/drinking), Time Bin 14 (65-70 TOTAL), AVG: 0.73
  BSS scoring E (eating/drinking), Time Bin 15 (70-75 TOTAL), AVG: 0.65
  BSS scoring E (eating/drinking), Time Bin 16 (75-80 TOTAL), AVG: 0.64
  BSS scoring E (eating/drinking), Time Bin 17 (80-85 TOTAL), AVG: 0.68
  BSS scoring E (eating/drinking), Time Bin 18 (85-90 TOTAL), AVG: 0.54
  BSS scoring G (grooming), Time Bin 13 (60-65 TOTAL), AVG: 0.06
  BSS scoring G (grooming), Time Bin 14 (65-70 TOTAL), AVG: 0.03
  BSS scoring G (grooming), Time Bin 15 (70-75 TOTAL), AVG: 0.05
  BSS scoring G (grooming), Time Bin 16 (75-80 TOTAL), AVG: 0.03
  BSS scoring G (grooming), Time Bin 17 (80-85 TOTAL), AVG: 0.01
  BSS scoring G (grooming), Time Bin 18 (85-90 TOTAL), AVG: 0.03
